Measurements taken from PMC9271048, “Probing strigolactone perception mechanisms with rationally designed small-molecule agonists stimulating germination of root parasitic weeds” (Nature Communications, 2022).
Read-outs that look alike come from different tables or passages of the source.

Legend:
[1] = biological target: T1, ShHTL7 (Striga hermonthica, UniProt A0A0M3PNA2); experiment: Competitive inhibition of ShHTL7 with Yoshimulactone Green (YLG) as substrate; assay type: biochemical
Procedure: Based on the structural feature of the lead compound 2h, we selected three regions to perform further modification (Supplementary Fig. 6), to try to further improve bioactivity. Insertion of a carbonyl group between the bicyclo[2.2.1]hept-5-en-2-yl group and the piperazine ring was detrimental to binding affinity (Supplementary Fig. 6, region A). Removal of an oxygen atom in region B was found unfavorable to binding affinity as well. Therefore, we focused on modifying the benzene ring (region C) for 2h. A series of compounds with different groups at region C was synthesized (Supplementary Scheme 1). […] As SPR just measures the binding ability, another independent assay by using Yoshimulactone Green (YLG) as the fluorescent substrate was performed to determine the half-maximal inhibitory concentration (IC50) of these compounds against ShHTL7[22].
The excitation and emission wavelengths of YLG are 480 and 520 nm, respectively. We used a fluorescence spectrophotometer (CARY Eclipse) to detect the fluorescence intensity change of YLG during the enzymatic hydrolysis assay process. All the testing compounds and YLG were dissolved in DMSO and prepared as stock solutions just before use. […] The changes of fluorescence at 520 nm of each well were recorded every 1 min for 30 min. Using the reaction mixture without adding enzyme and tested compounds as the background control. After subtracting the background hydrolysis, a linear fluorescence increase in 8 min was used for further inspection. The IC50 values were determined via fitting relative inhibition percentages with the varying concentrations of compounds in Microsoft Excel.

[2] = biological target: T1, ShHTL7; experiment: biochemical; assay type: binding
Procedure: We used a sensitive, high-throughput Surface plasmon resonance (SPR) method to examine the binding affinities of the 51 candidates to the recombinant ShHTL7 protein, which was immobilized on the CM5 sensor chip. rac-GR24 was used as a positive control.
The interactions of small molecules with recombinant ShHTL7 were evaluated using the Biacore T200 system (GE Healthcare, USA) at 25 °C[47]. The purified ShHTL7 protein was immobilized on a CM5 sensor chip using the standard amine coupling procedure. […] PBS-P (10 mM phosphate buffer, 2.7 mM KCl, 137 mM NaCl, 0.05% Surfactant P20) containing 0.5% DMSO was used as the running buffer. For the screening experiments, candidates with different structures at 50 μM in the running buffer were injected individually at a flow rate of 30 μL min^−1. For binding affinity studies, compounds with different concentrations in running buffer were used. During the experiments, both the contact and dissociation times were set as 1 min. Data analysis was performed using the Biacore Evaluation Software (T200 Version 2.0). The affinity values (KD) were obtained by the kinetics analysis or the steady-state affinity method.

[3] = system: P. aegyptiaca seeds; experiment: P. aegyptiaca seed germination assay; assay type: in vivo, Phelipanche aegyptiaca; design: P. aegyptiaca germination EC50 values, source data average: unit not given here; P. aegyptiaca seed germination activity, source data average: unit of the concentration uncertain; conditions: for P. aegyptiaca germination(%): Supplementary Table 1, compounds tested at 10 μM, means ± SD, n = 3; for EC50: Phelipanche aegyptiaca; for P. aegyptiaca seed germination activity, source data average: Supplementary Fig. 9b
Procedure: P. aegyptiaca seeds were harvested from Xinjiang province, China in 2017. The seeds were surface sterilized using 1% NaClO solution for 2 min and then washed with distilled water six times. For seed germination assay, about 20 pieces of glass fiber-filter paper discs (15 mm diameter, Whatman GF/B) were placed separately on two layers of filter papers (9 cm diameter, Whatman) in a Petri dish. Five milliliters of distilled water was added to each Petri dish to wet the papers. Approximately 40–90 sterilized seeds were spread onto each glass fiber-filter paper disc. After the seeds were conditioned in the dark at 25 °C for 4 days[48], glass fiber-filter paper discs were blotted dry on filter papers (9 cm) and transferred to the wells of 24-well cell culture plates. The testing compounds were dissolved in acetone and diluted with H2O (VH2O/Vacetone = 999/1) just before use[49]. rac-GR24 and 1‰ acetone solution were used as positive and negative controls, respectively. One hundred microliters of the test solution was added to each well of the plates, and all treatments were performed in three biological repeats. The plates were sealed and incubated in the dark at 25 °C for a week. The experiments were performed at least three times. The germinated seeds were observed by using an electronic magnifier at ×20 magnification.

[4] = wild-type ShHTL7, average of 3, source data of Fig. 2a,b, Supplementary Figs. 8a, 9a, 20b, read-out: IC50, competitive ShHTL7 inhibition (YLG), source data average
[5] = Supplementary Table 7, binding affinities between ShHTL7 and agonists by SPR, read-out: KD/μM
[6] = source data of Fig. 2c and Supplementary Fig. 8b, average of 3
[7] = YLG used as the substrate, means ± SD, n = 3, read-out: IC50 (Supplementary Table 1)
[8] = recombinant ShHTL7 immobilized on CM5 chip, 25 °C, read-out: KD (SPR)

T1 sequence (A0A0M3PNA2 entry or part of it): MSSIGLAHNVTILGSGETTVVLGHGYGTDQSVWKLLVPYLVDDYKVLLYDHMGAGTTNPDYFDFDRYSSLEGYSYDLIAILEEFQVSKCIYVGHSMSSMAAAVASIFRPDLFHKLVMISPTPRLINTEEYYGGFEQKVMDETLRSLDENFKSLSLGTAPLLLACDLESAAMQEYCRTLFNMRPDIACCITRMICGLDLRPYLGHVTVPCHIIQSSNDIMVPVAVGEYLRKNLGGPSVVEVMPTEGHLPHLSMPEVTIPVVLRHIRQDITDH

Compound	IC50 [1, 4] [µM]	IC50 [1, 7] [µM]	P. aegyptiaca germination(%) [3] [%]	other results
CC1=CC(OC(=O)N2CCN(C(=O)C(F)(F)Oc3ccc(Br)cc3C)CC2)OC1=O (stereo not shown) [4f]	4.25			Kd [2, 5]: 1.96 ± 0.29 µM; P. aegyptiaca germination EC50 values, source data average [3, 6]: 6.406
O=C(COc1ccc(C(F)(F)F)cc1)N1CCN(CC2CC3C=CC2C3)CC1 (stereo not shown) [3n]		12.8 ± 2.97	47.8	
O=C(COc1ccc([N+](=O)[O-])cc1)N1CCN(CC2CC3C=CC2C3)CC1 (stereo not shown) [3p]		15.6 ± 0.37	18.6	
CC1=CC(OC(=O)N2CCN(C(=O)COc3ccc(Cl)cc3C)CC2)OC1=O (stereo not shown) [4e]	2.35			Kd [2, 5]: 6.33 ± 3.1 µM; P. aegyptiaca germination EC50 values, source data average [3, 6]: 8.242
CC1=CC(OC(=O)N2CCN(C(=O)COc3c(F)c(F)c(F)c(F)c3F)CC2)OC1=O (stereo not shown) [4b]	3.03			IC50 ([1]; YLG as substrate, text and Fig. 2, read-out: IC50, competitive ShHTL7 inhibition (YLG assay)): 3.03 ± 0.58 µM; Kd [2]: 2.21 ± 0.42 µM; EC50 ([3]; read-out: EC50, P. aegyptiaca seed germination): ~0.0552 µM; EC50 ([3]; source data of Fig. 2c and Supplementary Fig. 8b, average of 3, read-out: P. aegyptiaca germination EC50 values, source data average (converted)): 0.0482 µM
CCCCOc1ccc(S(=O)(=O)N2CCN(C(=O)OC3C=C(C)C(=O)O3)CC2)cc1 (stereo not shown) [SPL7, reference compound]	4.31			Kd [2, 5]: 4.81 ± 0.02 µM; P. aegyptiaca germination EC50 values, source data average [3, 6]: 7.443
Cc1cc(F)ccc1OCC(=O)N1CCN(CC2CC3C=CC2C3)CC1 (stereo not shown) [3d]		10.7 ± 2.93	23.1	Kd [2, 8]: 1.86 µM
CCCCOc1ccc(S(=O)(=O)N2CCN(C(=O)OC3C=C(C)C(=O)N3C)CC2)cc1 (stereo not shown) [4j]	105			Kd [2, 5]: 18.1 ± 6.29 µM; P. aegyptiaca seed germination activity, source data average ([3]; 0.1 (unit uncertain) as printed): 4.315%; P. aegyptiaca seed germination activity, source data average ([3]; 1 (unit uncertain) as printed): 14.0733%; P. aegyptiaca seed germination activity, source data average ([3]; 10 (unit uncertain) as printed): 45.7326%
O=C(COc1ccc(Cl)cc1Cl)N1CCN(CC2CC3C=CC2C3)CC1 (stereo not shown) [3j]		9.22 ± 0.35	54.7	
O=C(COc1ccc2ccccc2c1Br)N1CCN(CC2CC3C=CC2C3)CC1 (stereo not shown) [3c]		6.12 ± 0.34	17.1	
Cc1cc(Cl)ccc1OCC(=O)N1CCN(CC2CC3C=CC2C3)CC1 (stereo not shown) [3e]		8.28 ± 1.12	7.0	Kd [2, 8]: 0.65 µM
O=C(c1ccco1)N1CCN(CC2CC3C=CC2C3)CC1 (stereo not shown) [2a]				Kd [2, 8]: 12.8 ± 0.6 µM
Cc1ccc(CCC(=O)N2CCN(CC3CC4C=CC3C4)CC2)cc1 (stereo not shown) [3r]		34.2 ± 6.9	34.2±6.9	
O=C(C(c1ccccc1)c1ccccc1)N1CCN(CC2CC3C=CC2C3)CC1 (stereo not shown) [2d]				Kd [2]: 5.22 ± 0.66 µM
Cc1cccc(OCC(=O)N2CCN(CC3CC4C=CC3C4)CC2)c1 (stereo not shown) [2f]			20.5	IC50 ([1]; IC50 (Supplementary Table 1), YLG used as the substrate, means ± SD, n = 3): 10.7 ± 0.96 µM; Kd [2]: 11.2 ± 0.16 µM; germination of P. aegyptiaca seeds, source data average ([3]; 10 μM, Fig. 1d source data, average of 3): 18.7364%
CS(=O)(=O)c1ccc(OCC(=O)N2CCN(CC3CC4C=CC3C4)CC2)cc1 (stereo not shown) [3q]		24.1 ± 6.49	34.8	
